Our source for the Ki and EC50 values is patent publication US20050124683A1, “HIV protease inhibitors, compositions containing the same, their pharmaceutical uses and materials for their synthesis” (priority 2003, published 2005).

As usually defined, the Ki is a measure of affinity in units of concentration, obtained from inhibition or displacement. Usually EC50 stands for the midpoint of the concentration-response curve.

The target in one experiment is T1, HIV-1 protease (Human immunodeficiency virus type 1 group M subtype B, UniProt P04585, Q495S).
T1 construct: made in house
Kind of experiment: HIV-1 Protease RET assay (Ki, resonance energy transfer). The conditions noted are these: Q7S mutant HIV-1 protease; read-out: Ki (nm). It counts as biochemical. The protocol:
Ki's for the inhibitors of HIV-1 protease were determined using a resonance energy transfer (RET) assay. […] This enzyme is first partially purified as inclusion bodies from cell lysate. It is then solublized in 8M urea and passed through a Q-Sepharose column (Pharmacia) for further purification. To refold this protein, samples containing Q7S is dialyzed into 50 mM sodium phosphate pH 7.0, 50 mM NaCl, 10 mM DTT, and 10% glycerol.
The commercially available peptide substrate (Molecular Probes Cat. # H-2930) RE(EDANS)SQNYPIVQK(DABCYL)R is used to assess activity and Ki's. This peptide is cleaved quantitatively by HIV-1 Pr at the Tyr-Pro bond. The EDANS fluorophore absorbs at 340 nm and emits at 490 nm. The reaction is carried out in a 96 well plate in a total volume of 100 µL and is run for 12 minutes at 37C under steady-state conditions with 5 µM substrate and 2 nM active dimer enzyme concentration. The literature value Km for this substrate and enzyme is 103+/−8 μM (See Matayoshi, et al., “Novel Fluorogenic Substrates for Assaying Retroviral Proteases by Resonance Energy Transfer,” Science 247, 954 (1990)). The buffer for this reaction is 0.1M sodium acetate pH 4.8, 1M NaCl, 1 mM EDTA, 5 mM dithiothreitol, 10% dimethyl sulfoxide and 1 mg/ml bovine serum albumin. Inhibition curves are fit using the Morrison tight binding equation.

Another experiment has as its system HIV-1. Kind of experiment: Antiviral EC50 in HIV-infected T-cell lines (CPE inhibition / susceptibility assays). It is filed as cell-based. The conditions noted are these: Human immunodeficiency virus 1, T-cell, read-out: EC50 (wt) (nm), wt virus. How it is done:
T-cell lines, CEM-SS, and MT-2, and viruses HIV-1 RF and HIV-1 NL4-3 (pNL4-3) were obtained from the National Institutes of Health (AIDS Research and Reference Reagent Program, Bethesda, MD).
The ability of compounds to protect cells against HIV infection was measured by the […] dye reduction method, essentially as described (See Pauwels, R. Balzarini, J. Baba, M. Snoeck, R. Schols, D. Herdewijn, P. Desmyter, J. and De Clercq, E. 1988, “Rapid and automated tetrazolium-based colorimetric assay for the detection of anti-HIV compounds,”. J Virol. Methods., 20: 309-321 and Weislow, O. S. Kiser, R. Fine, D. L. Bader, J. Shoemaker, R. H. and Boyd, M. R. 1989. “New soluble-formazan assay for HIV-1 cytopathic effects: application to high-flux screening of synthetic and natural products for AIDS-antiviral activity”. J. Natl. Cancer Inst. 81:577-586). Subject cells were infected with test virus at an moi of 0.025 to 0.819 or mock infected with medium only and added at 2×10^4 cells per well into 96 well plates containing half-log dilutions of test compounds. Six days later, 50 μl of XTT (1 mg/ml XTT tetrazolium, […] phenazine methosulfate) was added to the wells and the plate was reincubated for four hours. Viability, as determined by the amount of XTT formazan produced, was quantified spectrophotometrically by absorbance at 450 nm. Data from CPE assays were expressed as the percent of formazan produced in compound-treated cells compared to formazan produced in wells of uninfected, compound-free cells. The fifty percent effective concentration (EC50) was calculated as the concentration of compound that effected an increase in the percentage of formazan production in infected, compound-treated cells to 50% of that produced by uninfected, compound-free cells. The 50% cytotoxicity concentration (CC50) was calculated as the concentration of compound that decreased the percentage of formazan produced in uninfected, compound-treated cells to 50% of that produced in uninfected, compound-free cells. The therapeutic index was calculated by dividing the cytotoxicity (CC50) by the antiviral activity (EC50).
Compounds were tested in phenotypic susceptibility assays at Virologic, Inc., (See Petropoulos C. J., Parkin N. T., Limoli K. L., Lie Y. S., Wrin T., Huang W., Tian H., Smith D., Winslow G. A., Capon D J, Whitcomb J M. 2000, “A novel phenotypic drug susceptibility assay for human immunodeficiency virus type 1,” Antimicrob Agents Chemother 44(4):920-928) or using the assay described here. MT-2 cells were infected with either HIV-1 NL4-3 or HIV-1 NL4-3(I84V/L90M) and incubated in the presence of serial 0.5 log dilutions of test compounds. Three days later, culture supernatants were collected and virus production, as determined by p24 ELISA, was assayed. Percent inhibition was calculated as p24 concentration in compound-treated samples as compared to infected, compound-free controls. Inhibition of viral replication is determined by measuring reduction in HIV p24 present in the culture supernatant, using a Beckman-Coulter p24 HIV-1 Ag EIA kit and following the supplied protocol. Absorbance is read on a MRX microplate reader (Dynex Technologies). The EC50 was calculated as the concentration of compound that effected a decrease in the p24 production by infected, compound-treated cells to 50% of that produced by infected, compound-free cells.

SMILES strings stand for the structures.

`Cc1c(O)cccc1C(=O)N[C@@H](Cc1cccc(F)c1)[C@H](O)C(=O)N1CC(F)(F)C(C)(C)[C@H]1C(=O)NCC(C)(C)C` [drawing 136]: the Ki on HIV-1 protease was under 0.1 nM. The concentration giving a half-maximal response (EC50) with HIV-1 was 13 nM.

As to `CC(C)CNC(=O)[C@H]1N(C(=O)[C@@H](O)[C@H](Cc2cccc(F)c2)NC(=O)c2cccc3c2CCN3)CC(F)(F)C1(C)C`, the Ki on HIV-1 protease is under 0.1 nM. Besides, the EC50 in the experiment with HIV-1 was found to be 42 nM.
